Measurements published in patent publication US11427548B2 (Arvinas Operations, Inc., priority 2015, dated 2022).
Read-outs that look alike come from different tables or passages of the source.

Biological target: T1, Androgen Receptor (Homo sapiens, UniProt P10275)
T1 construct: endogenous in cells; host or cells: VCaP cells
T1 sequence (P10275 1-920): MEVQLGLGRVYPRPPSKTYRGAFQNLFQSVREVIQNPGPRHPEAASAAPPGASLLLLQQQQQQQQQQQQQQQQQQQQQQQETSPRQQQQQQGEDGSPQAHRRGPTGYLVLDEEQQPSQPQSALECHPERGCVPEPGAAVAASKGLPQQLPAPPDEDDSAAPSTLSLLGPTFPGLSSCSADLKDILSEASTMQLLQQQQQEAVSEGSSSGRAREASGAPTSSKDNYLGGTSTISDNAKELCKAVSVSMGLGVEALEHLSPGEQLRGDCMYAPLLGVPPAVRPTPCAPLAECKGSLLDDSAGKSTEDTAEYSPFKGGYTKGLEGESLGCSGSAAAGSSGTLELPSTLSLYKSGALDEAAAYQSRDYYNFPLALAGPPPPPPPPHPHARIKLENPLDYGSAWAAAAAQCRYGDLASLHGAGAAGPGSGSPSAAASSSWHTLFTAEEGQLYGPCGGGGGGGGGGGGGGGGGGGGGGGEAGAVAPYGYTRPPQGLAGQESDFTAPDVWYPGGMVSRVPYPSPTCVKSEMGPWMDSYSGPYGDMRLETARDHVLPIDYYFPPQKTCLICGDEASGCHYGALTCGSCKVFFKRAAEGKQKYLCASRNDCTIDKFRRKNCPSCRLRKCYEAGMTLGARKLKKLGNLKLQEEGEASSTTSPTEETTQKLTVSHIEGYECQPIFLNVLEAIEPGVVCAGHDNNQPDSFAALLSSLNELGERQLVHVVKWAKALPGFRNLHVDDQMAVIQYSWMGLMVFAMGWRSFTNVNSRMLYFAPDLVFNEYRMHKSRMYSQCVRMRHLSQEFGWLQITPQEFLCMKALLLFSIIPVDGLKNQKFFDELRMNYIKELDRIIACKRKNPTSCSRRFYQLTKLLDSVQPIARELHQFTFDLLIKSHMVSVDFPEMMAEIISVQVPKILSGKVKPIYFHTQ
Experiment: Androgen Receptor ELISA assay (PathScan AR ELISA) in VCaP cells: AR degradation, Dmax and DC50
Assay type: cell-based
Summary of the method: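 VCaP cells in phenol red-free RPMI with 5% charcoal-stripped FBS were grown at least 3 days, then given compound as 7 half-log doses in 0.1% DMSO with 0.1 nM R1881 for 24 h. Lysates went into a sandwich AR ELISA with TMB read at 450 nm.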

[1] = VCaP cells; Table 36; read-out: VCaP DC50
[2] = VCaP, VCaP cells; Table 36; read-out: VCaP Dmax (%)
[3] = read-out: VCaP DC50; concentration that caused 50% Androgen Receptor degradation, VCaP cells (Table 32)
[4] = VCaP cells; Table 35; read-out: VCaP DC50
[5] = VCaP, VCaP cells; Table 35; read-out: VCaP Dmax (%)

Structure (SMILES)	DC50 [1] [nM]	Dmax [2] [%]	Dmax (VCaP, read-out: VCaP Dmax (%)) [%]	also measured
Cc1ncsc1-c1ccc([C@H](C)NC(=O)C2C[C@@H](O)CN2C(=O)C(NC(=O)CN2CCC(CCN3CCN(c4ccc(C(=O)NC5C(C)(C)C(Oc6ccc(C#N)c(Cl)c6)C5(C)C)cn4)CC3)CC2)C(C)(C)C)cc1 (stereo partly drawn) [Example 827, N-((1r,3r)-3-(3-chloro-4-cyanophenoxy)-2,2,4,4-tetramethylcyclobutyl)-6-(4-(2-(1-(2-(((S)-1-((2S,4R)-4-hydroxy-2-(((S)-1-(4-(4-methylthiazol-5-yl)phenyl)ethyl)carbamoyl)pyrrolidin-1-yl)-3,3-dimethyl-1-oxobutan-2-yl)amino)-2-oxoethyl)piperidin-4-yl)ethyl)piperazin-1-yl)nicotinamide]	< 50	> 71		
Cc1ncsc1-c1ccc(CNC(=O)[C@@H]2C[C@@H](O)CN2C(=O)[C@@H](NC(=O)CCOCCOc2ccc(-c3ccc(N4C(=S)N(c5ccc(C#N)c(C(F)(F)F)c5)C(=O)C4(C)C)cc3)cn2)C(C)(C)C)cc1 [Example 86]			26 to 50	DC50 [3]: < 50 nM
Cc1ncsc1-c1ccc([C@H](C)NC(=O)[C@@H]2C[C@H](O)CN2C(=O)[C@@H](NC(=O)COCCN2CCN(c3ccc(C(=O)N[C@H]4C(C)(C)[C@H](Oc5ccc(C#N)c(Cl)c5)C4(C)C)cn3)CC2)C(C)(C)C)cc1 (stereo in doubt) [Example 608, N-((1r,3r)-3-(3-chloro-4-cyanophenoxy)-2,2,4,4-tetramethylcyclobutyl)-6-(4-(2-(2-(((S)-1-((2S,4R)-4-hydroxy-2-(((S)-1-(4-(4-methylthiazol-5-yl)phenyl)ethyl)carbamoyl)pyrrolidin-1-yl)-3,3-dimethyl-1-oxobutan-2-yl)amino)-2-oxoethoxy)ethyl)piperazin-1-yl)nicotinamide]	< 50	> 71		
Cc1ncsc1-c1ccc([C@H](C)NC(=O)[C@@H]2C[C@@H](O)CN2C(=O)[C@H](c2ncc(CCCCCNc3ccc(C(=O)N[C@H]4C(C)(C)[C@H](Oc5ccc(C#N)c(Cl)c5)C4(C)C)nc3)n2C)C(C)C)cc1 [Example 692, N-((1r,3r)-3-(3-chloro-4-cyanophenoxy)-2,2,4,4-tetramethylcyclobutyl)-5-((5-(2-((S)-1-((2S,4R)-4-hydroxy-2-(((S)-1-(4-(4-methylthiazol-5-yl)phenyl)ethyl)carbam-oyl)pyrrolidin-1-yl)-3-methyl-1-oxobutan-2-yl)-1-methyl-1H-imidazol-5-yl)pentyl)amino)picolin-amide]	> 501	< 25		
Cc1ncsc1-c1ccc([C@H](C)NC(=O)[C@@H]2C[C@@H](O)CN2C(=O)C(NC(=O)CO[C@@H]2CCCC[C@H]2N2CCN(CCOc3ccc(C(=O)N[C@H]4C(C)(C)[C@H](Oc5ccc(C#N)c(Cl)c5)C4(C)C)cc3)CC2)C(C)(C)C)cc1 (stereo partly drawn) [Example 792, (2S,4R)-1-((S)-2-(2-(((1R,2R)-2-(4-(2-(4-(((1r,3r)-3-(3-chloro-4-cyanophenoxy)-2,2,4,4-tetramethylcyclobutyl)carbamoyl)phenoxy)ethyl)piperazin-1-yl)cyclohexyl)oxy)acetamido)-3,3-dimethylbutanoyl)-4-hydroxy-N-((S)-1-(4-(4-methylthiazol-5-yl)phenyl)ethyl)pyrrolidine-2-carboxamide]	> 501	26 to 50		
Cc1ncsc1-c1ccc([C@H](C)NC(=O)[C@@H]2C[C@@H](O)CN2C(=O)[C@@H](c2cc(OCCN3CCN(c4ccc(C(=O)N[C@H]5C(C)(C)[C@H](Oc6ccc(C#N)c(Cl)c6)C5(C)C)cn4)CC3)no2)C(C)C)cc1 [Example 659, N-((1r,3r)-3-(3-chloro-4-cyanophenoxy)-2,2,4,4-tetramethylcyclobutyl)-6-(4-(2-((5-((R)-1-((2S,4R)-4-hydroxy-2-(((S)-1-(4-(4-methylthiazol-5-yl)phenyl)ethyl)carbam-oyl)pyrrolidin-1-yl)-3-methyl-1-oxobutan-2-yl)isoxazol-3-yl)oxy)ethyl)piperazin-1-yl)nicotinamide]	< 50	> 71		
Cc1ncsc1-c1ccc([C@H](C)NC(=O)[C@@H]2C[C@@H](O)CN2C(=O)[C@@H](NC(=O)CN2CCN(CCC3CCN(c4ccc(C(=O)N[C@H]5C(C)(C)[C@H](Oc6ccc(C#N)c(Cl)c6)C5(C)C)cn4)C3)CC2)C(C)(C)C)cc1 (stereo partly drawn) [Example 829, N-((1r,3r)-3-(3-chloro-4-cyanophenoxy)-2,2,4,4-tetramethylcyclobutyl)-6-(3-(2-(4-(2-(((S)-1-((2S,4R)-4-hydroxy-2-(((S)-1-(4-(4-methylthiazol-5-yl)phenyl)ethyl)carbamoyl)pyrrolidin-1-yl)-3,3-dimethyl-1-oxobutan-2-yl)amino)-2-oxoethyl)piperazin-1-yl)ethyl)pyrrolidin-1-yl)nicotinamide]	< 50		> 71	
CC(C)(C)[C@H](NC(=O)COCCCCCNc1ccc(C(=O)N[C@H]2C(C)(C)[C@H](Oc3ccc(C#N)c(Cl)c3)C2(C)C)cc1)C(=O)N1C[C@H](O)C[C@H]1C(=O)NCc1ccc(-c2nnc[nH]2)cc1 [Example 528]				DC50 [4]: < 50 nM; Dmax [5]: 51 to 70%
Cc1ncsc1-c1ccc(CNC(=O)[C@@H]2C[C@@H](O)CN2C(=O)[C@@H](NC(=O)COc2ccc(Oc3cccc(-c4ccc(N5C(=S)N(c6ccc(C#N)c(C(F)(F)F)c6)C(=O)C5(C)C)cc4)c3)cc2)C(C)(C)C)cc1 [Example 127, (2S,4R)-1-[(2S)-2-(2-{4-[3-(4-{3-[4-cyano-3-(trifluoromethyl)phenyl]-5,5-dimethyl-4-oxo-2-sulfanylideneimidazolidin-1-yl}phenyl)phen-oxy]phenoxy}acetamido)-3,3-dimethylbutanoyl]-4-hydroxy-N-{[4-(4-methyl-1,3-thiazol-5-yl)phenyl]methyl}pyrrolidine-2-carboxamide]			> 71	DC50 [3]: < 50 nM
Cc1ncsc1-c1ccc([C@H](C)NC(=O)[C@@H]2C[C@@H](O)CN2C(=O)[C@H](C(C)C)n2cc(-c3ccnc(N4CC[C@H](Oc5ccc(N6C(=S)N(c7ccc(C#N)c(C(F)(F)F)c7)C(=O)C6(C)C)cc5)C4)c3)cn2)cc1 [Example 609]			< 25	DC50 (read-out: VCaP DC50; VCaP cells; Table 36): > 501 nM
Cc1ncsc1-c1ccc(CNC(=O)[C@@H]2C[C@@H](O)CN2C(=O)[C@@H](NC(=O)COCCCCNc2ccc(-c3ccc(N4C(=S)N(c5ccc(C#N)c(C(F)(F)F)c5)C(=O)C4(C)C)cc3)cn2)C(C)(C)C)cc1 [Example 554]			51 to 70	DC50 (read-out: VCaP DC50; VCaP cells; Table 35): < 50 nM
Cc1ncsc1-c1ccc(CNC(=O)[C@@H]2C[C@@H](O)CN2C(=O)[C@@H](NC(=O)CS(=O)(=O)CCOc2ccc(-c3ccc(C(=O)N[C@H]4C(C)(C)[C@H](Oc5ccc(C#N)c(Cl)c5)C4(C)C)cc3)cc2)C(C)(C)C)cc1 [Example 472]				DC50 [4]: < 50 nM; Dmax [5]: > 71%
Cc1ncsc1-c1ccc(CNC(=O)[C@@H]2C[C@@H](O)CN2C(=O)[C@H](C(C)C)N2Cc3ccc(N4CCN(CCCc5ccc(C(=O)N[C@H]6C(C)(C)[C@H](Oc7ccc(C#N)c(Cl)c7)C6(C)C)cc5)CC4)cc3C2=O)cc1 [Example 774, (2S,4R)-1-((S)-2-(6-(4-(3-(4-(((1r,3r)-3-(3-chloro-4-cyanophenoxy)-2,2,4,4-tetramethylcyclobutyl)carbamoyl)phenyl)propyl)piperazin-1-yl)-1-oxoisoindolin-2-yl)-3-methylbutanoyl)-4-hydroxy-N-(4-(4-methylthiazol-5-yl)benzyl)pyrrolidine-2-carboxamide]	> 501	< 25		
CC(C)(C)[C@H](NC(=O)COCCNc1ccc(-c2ccc(C(=O)N[C@H]3C(C)(C)[C@H](Oc4ccc(C#N)c(Cl)c4)C3(C)C)cc2)cc1)C(=O)N1C[C@H](O)C[C@H]1C(=O)NCc1ccc(C#N)cc1 [Example 524]				DC50 [4]: < 50 nM; Dmax [5]: 51 to 70%
